Data: US10039729B2, “Use of kukoamine A and kukoamine B” (Tianjin Chase Sun Pharmaceutical Co., Ltd., priority 2010, dated 2018)

Tests used:
[1] = system: murine peritoneal macrophages; experiment: Release of TNF-α and IL-6 in murine peritoneal macrophages induced by LPS and CpG DNA (ELISA); type: cell-based, KM mice; conditions: 50, 100 and 200 μM, TNF-α at 4 h, IL-6 at 12 h
Procedure: Separation and culture of murine peritoneal macrophages: KM mice were killed by cervical dislocation and immediately immersed in 75% ethanol for skin degerming; then abdominal skin was aseptically cut open; precooling DMEM cell culture medium was slowly injected in exposed peritoneum with a 5 ml syringe; murine abdomen was gently massaged for sufficient cell collection; subsequently, DMEM was withdrew, transferred into 10 ml centrifuge tube, centrifuged at 500 rpm for 5 min, resuspended in DMEM supplemented with 10% (v/v) NCS, transferred into cell culture bottle, and then cultured at 37° C. in a 5% CO2 humidified incubator for 2 h; culture medium was replaced with fresh culture medium to remove unattached cells; over 95% of the remained cells were murine peritoneal macrophages, which continued to be cultured and proliferated.
Loading and detection: According to the method in embodiment 6, KB and PMB were separately diluted in DMEM supplemented with 10% (v/v) NCS and transferred into culture medium of […] to achieved final concentrations of 50, 100 and 200 μM; RAW264.7 cells continued to be incubated; the supernatant was collected four hours later for TNF-α detection; the supernatant at were collected 12 hours later for IL-6 detection; the concentration of TNF-α and IL-6 of each group was detected according to the manufacturer's instructions of ELISA kit; result was expressed by means of mean±standard deviation.

RAW264.7 cells [2] = experiment: Binding of fluorescently-labeled LPS and CpG DNA with RAW264.7 cells (flow cytometry); type: cell-based, murine; conditions: 30 min; for fluorescence intensity of CpG DNA in RAW264.7 cells / fluorescence intensity of LPS in RAW264.7 cells: 200 μg/ml, p<0.01; for fluorescence intensity of CpG DNA in RAW264.7 cells: 5-FAM CpG DNA 10 μg/ml; for fluorescence intensity of LPS in RAW264.7 cells: FITC-labeled LPS 400 ng/ml
Procedure: 5.1 Methods: RAW264.7 cells were diluted to 1×10^6/ml in DMEM supplemented with 10% (v/v) NCS, added into 24-well cell culture plates, cultured at 37° C. in a 5% CO2 humidified incubator for 4 h, added with KA and KB (0, 200 μg/ml) after cells attachment, and then added with FITC-labeled LPS (final concentration of 400 ng/ml) and 5-FAM CpG DNA (final concentration of 10 μg/ml); at the same time, medium group without any reagent was established; subsequently, RAW264.7 cells were incubated for 30 min, washed thrice in PBS, resuspended with a pipet and transferred into EP tube, and immobilized with 4% paraform for 10 min; then cells were washed thrice in PBS, made into cell suspension, and detected by flow cytometry; the detections of each group were repeated thrice. Mean fluorescence intensity was expressed by means of Mean±standard deviation.
20.1 Methods: RAW264.7 cells was diluted to 1×10^6/ml in DMEM supplemented with 10% (v/v) NCS; 2 ml of the above suspension was added into 24-well cell culture plates and cultured at 37° C. in a 5% CO2 humidified incubator for 4 h; for the purpose of experiment three groups were established: medium group, stimulation group and KB treatment group; no reagent was added into medium group; stimulation group was added with FITC-LPS (200 ng/ml) and 5-FAM-CpG DNA (10 μg/ml); KB treatment group was added with KB (final concentrations of 50, 100 and 200 μM) in the meantime of adding LPS and CpG DNA; cells continued to be cultured for 30 min, washed thrice with PBS, and stored in dark place until the fluorescence intensity of cell membrane surfaces was detected by flow cytometry.

RAW264.7 cells [3] = experiment: Cell vitality of RAW264.7 cells (MTT assay); type: cell-based, murine; conditions: 24 h; for RAW264.7 cells vitality (OD550): 200 μg/ml, p>0.05
Procedure: (1) Influence on vitality of RAW264.7 cells: According to embodiment 7, for the purpose of experiment a medium group, KB group (25, 50, 100, 200, 400 and 800 μM), a LPS (100 ng/ml)+KB (0, 100, 200 and 400 μM) group and a CpG DNA (10 μg/ml)+KB (0, 100, 200 and 400 μM) group were established; MTT was dissolved with PBS to make 5 mg/ml solution and filtered, which served as stock solution and stored at −20° C. for further detection; RAW264.7 cells were adjusted to 1×10^6/ml in DMEM medium, added into 96-well plates (200 μl per well), and cultured at 37° C. in a 5% CO2 humidified incubator for 4 h; the specified concentration of LPS, CpG DNA and KB were separately loaded according to the grouping; cells were cultured at 37° C. in a 5% CO2 humidified incubator for 24 h, centrifuged at 1000 rpm/min for 5 min; the supernatant was sucked and discarded; each well was added with 180 μl cell culture medium and 20 μl MTT stock solution, then cultured at 37° C. in a 5% CO2 humidified incubator for 4 h, and centrifuged at 1000 rpm/min for 10 min; then the supernatant was sucked and discarded; each well was added with 150 μl DMSO, and shook for 10 min for the dissolution of the crystals; RAW264.7 cells vitality was expressed as absorbance values at 550 nm of each well, which were instantly assayed by ELIASA.

Q: What does the source list for polymyxin B [PMB, reference compound]?
A: release of TNF-α and IL-6 induced by CpG DNA [1]: can only inhibit the release of TNF-α and IL-6 induced by LPS; release of TNF-α and IL-6 induced by LPS [1]: inhibit the release of TNF-α and IL-6

Q: With `NCCCN(CCCCNCCCNC(=O)CCc1ccc(O)c(O)c1)C(=O)CCc1ccc(O)c(O)c1` [KB, Kukoamine B] as the molecule, how does the “fluorescence intensity of CpG DNA in RAW264.7 cells” value (RAW264.7 cells [2]) read?
A: Its value is “significantly decrease the fluorescence intensity”.

Q: And the “fluorescence intensity of LPS in RAW264.7 cells” value (RAW264.7 cells [2])?
A: The value was “significantly decrease the fluorescence intensity”.

Q: And the “mean fluorescence intensity (MFI) of cell membrane, 5-FAM-CpG DNA” value (RAW264.7 cells [2]; KB 50, 100 and 200 μM, 5-FAM-CpG DNA 10 μg/ml)?
A: Its value is “decrease the MFI of cell membrane in a dose-dependent manner”.

Q: What about the “mean fluorescence intensity (MFI) of cell membrane, FITC-LPS” value (RAW264.7 cells [2]; KB 50, 100 and 200 μM, FITC-LPS 200 ng/ml) of the same molecule?
A: Its value is “decrease the MFI of cell membrane in a dose-dependent manner”.

Q: And the “RAW264.7 cells vitality (OD550)” value (RAW264.7 cells [3])?
A: Its value is “no influence on RAW264.7 cells vitality”.

Q: What about the “absorbance values (vitality of RAW264.7 cells) vs medium group” value (RAW264.7 cells [3]; KB 25-800 μM, or KB 0-400 μM plus LPS 100 ng/ml or CpG DNA 10 μg/ml) of the same molecule?
A: The value was “no statistic difference on absorbance values”.

Q: What about the “release of TNF-α and IL-6 induced by CpG DNA” value [1] of the same molecule?
A: Its value is “inhibit the release of TNF-α and IL-6”.

Q: And the “release of TNF-α and IL-6 induced by LPS” value [1]?
A: The value was “inhibit the release of TNF-α and IL-6”.

Q: `O=C(CCc1ccc(O)c(O)c1)NCCCNCCCCNCCCNC(=O)CCc1ccc(O)c(O)c1` [KA, Kukoamine A] was tested. Which “fluorescence intensity of CpG DNA in RAW264.7 cells” value (RAW264.7 cells [2]) did it give?
A: The value was “significantly decrease the fluorescence intensity”.

Q: And the “fluorescence intensity of LPS in RAW264.7 cells” value (RAW264.7 cells [2])?
A: The value was “significantly decrease the fluorescence intensity”.

Q: And the “RAW264.7 cells vitality (OD550)” value (RAW264.7 cells [3])?
A: The value was “no influence on RAW264.7 cells vitality”.
